Results reported in publication PMC3466212, “Novel AChE Inhibitors for Sustainable Insecticide Resistance Management” (PLoS ONE, 2012).
Read-outs that look alike come from different tables or passages of the source.

How the values were obtained:
[1] = system: C. pipiens SR strain larvae; assay: Larval bioassay, SR strain (OP-resistant); conditions: for Mortality at 300 µM, SR: fourth-instar larvae, 24 hours exposure; for mortality at 300 µM: Culex pipiens, 24 h, read-out: Mortality at 300 µM, SR
Excerpt: (§1) Three C. pipiens strains were used: the susceptible reference Slab strain, homozygous for ace-1 ^S [39], the resistant reference SR strain, carrying the genetical background of Slab but homozygous for the G119S mutation, allele ace-1 ^R [21] and the Ducos strain, carrying the genetical background of Slab but homozygous for an ace-1 duplication, with one ace-1^S and ace-1^R copy in tandem. Culex pipiens heterozygous larvae (Slab×SR) were obtained by crossing Slab males and SR females.
Insecticidal activity was determined by performing bioassays on fourth-instar larvae as described in [42]. Each compound was dissolved in ethanol. Propoxur (CX) and chlorpyrifos (OP) were used as references. For each compound, we first tested mortality after a 24-hour exposure at 300 µM. […] Mortality data were analyzed by the log-probit program.

[2] = system: C. pipiens Slab strain larvae; assay: Larval bioassay, Slab strain (OP-susceptible); conditions: for Mortality at 300 µM, Slab: fourth-instar larvae, 24 hours exposure; for mortality at 300 µM: Culex pipiens, 24 h, read-out: Mortality at 300 µM, Slab
Excerpt: as §1, with “females. Two A. gambiae reference strains (S molecular form) were used: the susceptible strain Kisumu, homozygous for ace-1 ^S, collected in Kenya in 1953 and maintained since then under laboratory conditions and the resistant Acerkis strain, carrying the genetical background of Kisumu but homozygous for an ace-1^R allele from a population collected in Bobo-Dioulasso, Burkina Faso [41].” for “females.”
Insecticidal activity was determined by performing bioassays on fourth-instar larvae as described in [42]. Each compound was dissolved in ethanol. Propoxur (CX) and chlorpyrifos (OP) were used as references. For each compound, we first tested mortality after a 24-hour exposure at 300 µM. […] Mortality data were analyzed by the log-probit program. This program takes into account natural mortality and provides lethal doses (LD) and slopes for each mortality line; it also computes resistance ratios (RR) for each LD, with 95% confidence intervals.

WT AChE1 = WT AChE1 (Culex pipiens, UniProt Q86GC8); assay: AChE assay (Ellman), dose-response on recombinant WT AChE1; type: biochemical; design: made in house; host or cells: Drosophila S2 cells
Description: (§2) Production of C. pipiens WT and mutated AChE1s in Drosophila S2 cells was already described. The chemical library (ChemBridge, 3,000 compounds) screening was performed in duplicate on G119S recombinant AChE1. Chemicals were made soluble in ethanol or dimethylsulphoxide (DMSO), and then diluted at 300 µM in ethanol for storage. Compounds (30 µM final concentration) were incubated for 15 min at room temperature with 100 µl of G119S recombinant AChE1 then 100 µl of substrate (acetylthiocholine, 1.6 mM, Sigma-Aldrich) was added and the residual activity was quantified by measuring the optical density at 412 nm, as described by Ellman et al.. PTF analogs were analyzed in dose-response experiments (10-fold serial dilutions from 3 mM to 30 nM), using recombinant WT and G119S AChE1 or mosquito head extracts (heads cut from frozen mosquitoes, homogenized in 400 µl PB containing 1% Triton X-100 and cleared by centrifugation at 9,000×g for 3 min). Depending on compound availability, two to five replicates were performed with distinct batches of enzyme. […] IC50 was estimated by nonlinear least square regression. IC50 was also measured on AChE1 from susceptible and resistant mosquito larvae extracts.

G119S AChE1 = molecular target: T1, G119S AChE1 (Culex pipiens, UniProt Q86GC8, G247S); assay: biochemical; type: biochemical
T1 construct: made in house; host or cells: Drosophila S2 cells
Description: as §2, with “Compounds (30 µM final concentration) were incubated for 15 min at room temperature with 100 µl of G119S recombinant AChE1 then 100 µl of substrate (acetylthiocholine, 1.6 mM, Sigma-Aldrich) was added and the residual activity was quantified by measuring the optical density at 412 nm, as described by Ellman et al..” left out

[3] = recombinant wild-type C. pipiens AChE1, 15 min incubation, acetylthiocholine, read-out: IC50 WT
[4] = recombinant OP-insensitive G119S C. pipiens AChE1, 15 min incubation, acetylthiocholine, read-out: IC50 G119S

SMILES	Mortality at 300 µM, SR [1] [%]	Mortality at 300 µM, Slab [2] [%]	IC50 (WT AChE1) [µM]	mortality at 300 µM [1] [%]	mortality at 300 µM [2] [%]	IC50 (G119S AChE1) [µM]	IC50 (WT AChE1; [3]) [µM]	IC50 (G119S AChE1; [4]) [µM]	inhibition in primary screen (hydrolysis of acetylthiocholine) (G119S AChE1; 30 µM final concentration, duplicate, G119S recombinant AChE1)
CCOP(=O)(OCC)Oc1nc(Cl)c(Cl)cc1Cl [Chlorpyrifos-oxon, reference compound]	100	100							
COP(=O)(OC)OC=C(Cl)Cl [Dichlorvos, reference compound]			0.45	100	100	2			
C=CCN1C(=O)NC(=O)C(=Cc2ccc(C)o2)C1=O [PTF-1]	0	0					3	2.2	
Cc1ccc(C=C2C(=O)NC(=O)N(C3CCCCC3)C2=O)o1 [PTF-2]	53	12					12.6	5.5	
Cc1ccc(N2C(=O)NC(=O)C(=Cc3ccc(C)o3)C2=O)cc1 [PTF-4]	100	78					111	14	
Cc1ccc(C=C2C(=O)NC(=O)N(c3ccccc3C)C2=O)o1 [PTF-5]	0	0					1.4	1.1	
Cc1cccc(N2C(=O)NC(=O)C(=Cc3ccc(C)o3)C2=O)c1 [PTF-6]	0	0					4	4.4	
Cc1ccc(C=C2C(=O)NC(=O)N(c3ccc(C)c(C)c3)C2=O)o1 [PTF-7]	100	100					424	35	
CCc1ccc(N2C(=O)NC(=O)C(=Cc3ccc(C)o3)C2=O)cc1 [PTF-8]	100	60					312	19	
Cc1ccc(C=C2C(=O)NC(=O)N(c3ccc(C(C)C)cc3)C2=O)o1 [PTF-9]	39	19					132	21.5	
COc1ccccc1N1C(=O)NC(=O)C(=Cc2ccc(C)o2)C1=O [PTF-11]	0	0					1.3	1	
COc1cccc(N2C(=O)NC(=O)C(=Cc3ccc(C)o3)C2=O)c1 [PTF-12]	88	46					54	6	
CCOc1ccc(N2C(=O)NC(=O)C(=Cc3ccc(C)o3)C2=O)cc1 [PTF-13]	96	64					236	89	
COc1ccc(OC)c(N2C(=O)NC(=O)C(=Cc3ccc(C)o3)C2=O)c1 [PTF-14]	0	0					2	2	
Cc1ccc(C=C2C(=O)NC(=O)N(c3ccc(C(=O)O)cc3)C2=O)o1 [PTF-15]	0	0					9	12.9	
Cc1ccc(C=C2C(=O)NC(=O)N(Cc3ccco3)C2=O)o1 [PTF-16]	100	80					260	37	
Cc1ccc(C=C2C(=O)NC(=O)N(c3ccc(F)cc3)C2=O)o1 [PTF-17]	90	15					5	8	
Cc1ccc(C=C2C(=O)NC(=O)N(c3ccccc3F)C2=O)o1 [PTF-18]	0	0					5.3	1.8	
Cc1ccc(C=C2C(=O)NC(=O)N(CCc3ccc(F)cc3)C2=O)o1 [PTF-19]	0	0					3.3	3.7	
Cc1ccc(C=C2C(=O)NC(=O)N(c3cccc(Cl)c3Cl)C2=O)o1 [PTF-21]	0	0					5	4.8	
Cc1ccc(C=C2C(=O)NC(=O)N(c3cccc(Br)c3)C2=O)o1 [PTF-22]	97	68					1.5	1.9	
CCCCN1C(=O)C(=Cc2ccc(C)o2)C(=O)NC1=S [PTF-23]	60	24					12.1	15.5	
Cc1ccc(N2C(=O)C(=Cc3ccc(C)o3)C(=O)NC2=S)cc1 [PTF-24]	0	0					1.3	1.9	80–87%
CCc1ccc(N2C(=O)C(=Cc3ccc(C)o3)C(=O)NC2=S)cc1 [PTF-26]	65	100					9	16	
COc1ccc(N2C(=O)C(=Cc3ccc(C)o3)C(=O)NC2=S)cc1 [PTF-27]	15	12					1.7	5.9	
COc1ccccc1N1C(=O)C(=Cc2ccc(C)o2)C(=O)NC1=S [PTF-28]	0	0					2.1	1.8	
CCOP(=O)(OCC)Oc1ccc([N+](=O)[O-])cc1 [Paraoxon, reference compound]	100	100							
Nc1c2c(nc3ccccc13)CCCC2 [Tacrine, reference compound]				95	85				
